Data published in patent publication US8835428B2, “Diacylglycerol acyltransferase inhibitors” (Piramal Enterprises Limited, priority 2008, dated 2014).

The compounds below were run against T1, hDGAT1 (Homo sapiens, UniProt O75907) (assay: In-vitro DGAT1 assay (hDGAT1 microsomes from Sf9 cells, 14C oleoyl CoA, triglyceride formation)). Details: At 10 μM.
T1 construct: host or cells: Sf9 insect cells (baculovirus); microsomal preparation
T1 sequence (O75907 1-488): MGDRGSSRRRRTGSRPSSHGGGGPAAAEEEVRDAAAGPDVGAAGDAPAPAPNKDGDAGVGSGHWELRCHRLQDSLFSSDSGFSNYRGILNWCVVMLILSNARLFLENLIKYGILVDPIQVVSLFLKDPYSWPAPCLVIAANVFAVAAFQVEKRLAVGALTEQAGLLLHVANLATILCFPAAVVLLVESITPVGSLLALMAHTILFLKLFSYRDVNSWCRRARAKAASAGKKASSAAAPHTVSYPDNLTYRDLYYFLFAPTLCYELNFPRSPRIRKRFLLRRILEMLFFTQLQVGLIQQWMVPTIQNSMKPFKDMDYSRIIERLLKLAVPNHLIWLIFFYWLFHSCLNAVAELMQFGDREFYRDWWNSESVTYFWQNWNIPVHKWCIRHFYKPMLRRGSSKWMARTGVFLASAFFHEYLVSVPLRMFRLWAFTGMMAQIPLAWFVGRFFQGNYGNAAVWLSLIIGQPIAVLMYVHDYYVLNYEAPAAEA
Assay type: biochemical
Outline: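 Compounds tested in duplicate at 10, 5 and 1 μM for 10 min at 37 °C. Reaction: Sf9-expressed hDGAT1 microsomes (2.5–10 μg), [14C]oleoyl-CoA plus 409.5–1638 μM dioleoylglycerol, pH 7.4 Tris-HCl with fatty-acid-free BSA. Radiolabelled triglyceride extracted into heptane and scintillation-counted.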
An inhibition at 10 µM of 0 to 50% was found for `COC(=O)C1(NC(=O)c2cc(-c3ccc(Nc4nc5ccc(F)cc5s4)cc3)no2)CCCC1` [Example 62, 1-({3-[4-(6-fluoro-benzothiazol-2-ylamino)-phenyl]-isoxazole-5-carbonyl}-amino)-cyclopentanecarboxylic acid methyl ester] in this work. An inhibition at 10 µM of 0 to 50% was found for `O=C(NC1(C(=O)O)CCCC1)c1cc(-c2ccc(Nc3nc4ccc(F)cc4s3)cc2)no1` [Example 63, 1-({3-[4-(6-Fluoro-benzothiazol-2-ylamino)-phenyl]-isoxazole-5-carbonyl}-amino)-cyclopentanecarboxylic acid] in this work. An inhibition at 10 µM of 0 to 50% was found for `O=C(O)C1(NC(=S)c2cc(-c3ccc(Nc4nc5ccc(F)cc5s4)cc3)no2)CCCC1` [Example 65, 1-({3-[4-(6-Fluoro-benzothiazol-2-ylamino)-phenyl]-isoxazole-5-carbothioyl}-amino)-cyclopentanecarboxylic acid] in this work. An inhibition at 10 µM of 0 to 50% was found for `O=C(O)C1(NC(=NO)c2cc(-c3ccc(Nc4nc5ccc(F)cc5s4)cc3)no2)CCCC1` [Example 66, 1-({3-[4-(6-Fluoro-benzothiazol-2-ylamino)-phenyl]-N-hydroxy-isoxazole-5-carboximidoyl}-amino)-cyclopentanecarboxylic acid] in this work. An inhibition at 10 µM of 0 to 50% was found for `COC(=O)[C@@H](NC(=O)c1c(-c2ccc(Nc3nc4ccc(F)cc4s3)cc2)noc1-c1ccccc1)C(C)C` [Example 68, (S)-2-({3-[4-(6-Fluoro-benzothiazol-2-ylamino)-phenyl]-5-phenyl-isoxazole-4-carbonyl}-amino)-3-methyl-butyric acid methyl ester] in this work. An inhibition at 10 µM of 0 to 50% was found for `CC(C)[C@H](NC(=O)c1c(-c2ccc(Nc3nc4ccc(F)cc4s3)cc2)noc1-c1ccccc1)C(=O)O` [Example 69, (S)-2-({3-[4-(6-Fluoro-benzothiazol-2-ylamino)-phenyl]-5-phenyl-isoxazole-4-carbonyl}-amino)-3-methyl-butyric acid] in this work. An inhibition at 10 µM of 0 to 50% was found for `COC[C@H](NC(=O)c1c(-c2ccc(Nc3nc4ccc(F)cc4s3)cc2)noc1-c1ccccc1)C(=O)OC` [Example 70, (S)-2-({3-[4-(6-Fluoro-benzothiazol-2-ylamino)-phenyl]-5-phenyl-isoxazole-4-carbonyl}-amino)-3-methoxy-propionic acid methyl ester] in this work. An inhibition at 10 µM of 0 to 50% was found for `COC(=O)[C@@H](NC(=S)c1c(-c2ccc(Nc3nc4ccc(F)cc4s3)cc2)noc1-c1ccccc1)C(C)C` [Example 72, (S)-2-({3-[4-(6-Fluoro-benzothiazol-2-ylamino)-phenyl]-5-phenyl-isoxazole-4-carbothioyl}-amino)-3-methyl-butyric acid methyl ester] in this work. An inhibition at 10 µM of 0 to 50% was found for `COC[C@H](NC(=S)c1c(-c2ccc(Nc3nc4ccc(F)cc4s3)cc2)noc1-c1ccccc1)C(=O)OC` [Example 74, (S)-2-({3-[4-(6-Fluoro-benzothiazol-2-ylamino)-phenyl]-5-phenyl-isoxazole-4-carbothioyl}-amino)-3-methoxy-propionic acid methyl ester] in this work. An inhibition at 10 µM of 50 to 75% was found for `COC(=O)[C@@H](NC(=O)c1cc(-c2ccc(NC(=O)Nc3ccccc3)cc2)no1)C(C)C` [Example 76, (S)-3-Methyl-2-({3-[4-(3-phenyl-ureido)-phenyl]-isoxazole-5-carbonyl}-amino)-butyric acid methyl ester] in this work. An inhibition at 10 µM of 75 to 100% was found for `CC(C)[C@H](NC(=O)c1cc(-c2ccc(NC(=O)Nc3ccccc3)cc2)no1)C(=O)O` [Example 77, (S)-3-Methyl-2-({3-[4-(3-phenyl-ureido)-phenyl]-isoxazole-5-carbonyl}-amino)-butyric acid] in this work. An inhibition at 10 µM of 0 to 50% was found for `CCC(C)[C@H](NC(=O)c1cc(-c2ccc(NC(=O)Nc3ccccc3)cc2)no1)C(=O)OC` (stereo partly drawn) [Example 78, (S)-3-Methyl-2-({3-[4-(3-phenyl-ureido)-phenyl]-isoxazole-5-carbonyl}-amino)-pentanoic acid methyl ester] in this work. An inhibition at 10 µM of 75 to 100% was found for `CCC(C)[C@H](NC(=O)c1cc(-c2ccc(NC(=O)Nc3ccccc3)cc2)no1)C(=O)O` (stereo partly drawn) [Example 79, (S)-3-Methyl-2-({3-[4-(3-phenyl-ureido)-phenyl]-isoxazole-5-carbonyl}-amino)-pentanoic acid] in this work. In the case of `COC(=O)[C@@H](NC(=O)c1cc(-c2ccc(NC(=O)NC3CCCCC3)cc2)no1)C(C)C` [Example 80, (S)-2-(S)-2-({3-[4-(3-cyclohexyl-ureido)-phenyl]-isoxazole-5-carbonyl}-amino)-3-methyl-butyric acid methyl ester], the “% inhibition of hDGAT1” value is reported as “++ (>50% Inhibition ≦75)”. An inhibition at 10 µM of 75 to 100% was found for `CC(C)[C@H](NC(=O)c1cc(-c2ccc(NC(=O)NC3CCCCC3)cc2)no1)C(=O)O` [Example 81, (S)-2-({3-[4-(3-cyclohexyl-ureido)-phenyl]-isoxazole-5-carbonyl}-amino)-3-methyl-butyric acid] in this work. An inhibition at 10 µM of 0 to 50% was found for `COC(=O)[C@H](CC(C)C)NC(=O)c1cc(-c2ccc(NC(=O)NC3CCCCC3)cc2)no1` [Example 82, (S)-2-({3-[4-(3-cyclohexyl-ureido)-phenyl]-isoxazole-5-carbonyl}-amino)-4-methyl-pentanoic acid methyl ester] in this work. An inhibition at 10 µM of 50 to 75% was found for `CC(C)C[C@H](NC(=O)c1cc(-c2ccc(NC(=O)NC3CCCCC3)cc2)no1)C(=O)O` [Example 83, (S)-2-({3-[4-(3-cyclohexyl-ureido)-phenyl]-isoxazole-5-carbonyl}-amino)-4-methyl-pentanoic acid] in this work. An inhibition at 10 µM of 50 to 75% was found for `COC(=O)[C@@H](NC(=O)c1cc(-c2ccc(NC(=O)Nc3ccc(F)cc3)cc2)no1)C(C)C` [Example 84, (S)-2-[(3-{4-[3-(4-Fluoro-phenyl}-ureido]-phenyl)-isoxazole-5-carbonyl)-amino]-3-methyl-butyric acid methyl ester] in this work. An inhibition at 10 µM of 75 to 100% was found for `CC(C)[C@H](NC(=O)c1cc(-c2ccc(NC(=O)Nc3ccc(F)cc3)cc2)no1)C(=O)O` [Example 85, (S)-2-[(3-{4-[3-(4-Fluoro-phenyl)-ureido]-phenyl}-isoxazole-5-carbonyl)-amino]-3-methyl-butyric acid] in this work. An inhibition at 10 µM of 0 to 50% was found for `COC(=O)[C@H](CC(C)C)NC(=O)c1cc(-c2ccc(NC(=O)Nc3ccc(F)cc3)cc2)no1` [Example 86, (S)-2-[(3-{4-[3-(4-Fluoro-phenyl)-ureido]-phenyl}-isoxazole-5-carbonyl)-amino]-4-methyl-pentanoic acid methyl ester] in this work. An inhibition at 10 µM of 75 to 100% was found for `CC(C)C[C@H](NC(=O)c1cc(-c2ccc(NC(=O)Nc3ccc(F)cc3)cc2)no1)C(=O)O` [Example 87, (S)-2-[(3-{4-[3-(4-Fluoro-phenyl)-ureido]-phenyl}-isoxazole-5-carbonyl)-amino]-4-methyl-pentanoic acid] in this work. An inhibition at 10 µM of 0 to 50% was found for `COC(=O)[C@@H](NC(=O)c1onc(-c2ccc(NC(=O)Nc3ccccc3)cc2)c1-c1ccccc1)C(C)C` [Example 88, (S)-3-Methyl-2-({4-phenyl-3-[4-(3-phenyl-ureido)-phenyl]-isoxazole-5-carbonyl}-amino)-butyric acid methyl ester] in this work. An inhibition at 10 µM of 0 to 50% was found for `CC(C)[C@H](NC(=O)c1onc(-c2ccc(NC(=O)Nc3ccccc3)cc2)c1-c1ccccc1)C(=O)O` [Example 89, (S)-3-Methyl-2-({4-phenyl-3-[4-(3-phenyl-ureido)-phenyl]-isoxazole-5-carbonyl}-amino)-butyric acid] in this work. An inhibition at 10 µM of 0 to 50% was found for `COC(=O)[C@H](CC(C)C)NC(=O)c1onc(-c2ccc(NC(=O)Nc3ccccc3)cc2)c1-c1ccccc1` [Example 90, (S)-4-Methyl-2-({4-phenyl-3-[4-(3-phenyl-ureido)-phenyl]-isoxazole-5-carbonyl}-amino)-pentanoic acid methyl ester] in this work. An inhibition at 10 µM of 0 to 50% was found for `CC(C)C[C@H](NC(=O)c1onc(-c2ccc(NC(=O)Nc3ccccc3)cc2)c1-c1ccccc1)C(=O)O` [Example 91, (S)-4-Methyl-2-({4-phenyl-3-[4-(3-phenyl-ureido)-phenyl]-isoxazole-5-carbonyl}-amino)-pentanoic acid] in this work. An inhibition at 10 µM of 0 to 50% was found for `COC(=O)[C@@H](NC(=O)c1onc(-c2ccc(NC(=O)Nc3ccc(F)cc3)cc2)c1-c1ccccc1)C(C)C` [Example 92, (S)-2-[(3-{4-[3-(4-Fluoro-phenyl)-ureido]-phenyl}-4-phenyl-isoxazole-5-carbonyl)-amino]-3-methyl-butyric acid methyl ester] in this work. An inhibition at 10 µM of 0 to 50% was found for `CC(C)[C@H](NC(=O)c1onc(-c2ccc(NC(=O)Nc3ccc(F)cc3)cc2)c1-c1ccccc1)C(=O)O` [Example 93, (S)-2-[(3-{4-[3-(4-Fluoro-phenyl)-ureido]-phenyl}-4-phenyl-isoxazole-5-carbonyl)-amino]-3-methyl-butyric acid] in this work. An inhibition at 10 µM of 0 to 50% was found for `COC(=O)[C@H](CC(C)C)NC(=O)c1onc(-c2ccc(Nc3nc4ccc(F)cc4s3)cc2)c1-c1ccccc1` [Example 94, (S)-2-({3-[4-(6-Fluoro-benzothiazol-2-ylamino)-phenyl]-4-phenyl-isoxazole-5-carbonyl}-amino)-4-methyl-pentanoic acid methyl ester] in this work. An inhibition at 10 µM of 0 to 50% was found for `CC(C)C[C@H](NC(=O)c1onc(-c2ccc(Nc3nc4ccc(F)cc4s3)cc2)c1-c1ccccc1)C(=O)O` [Example 95, (S)-2-({3-[4-(6-Fluoro-benzothiazol-2-ylamino)-phenyl]-4-phenyl-isoxazole-5-carbonyl}-amino)-4-methyl-pentanoic acid] in this work.
